Measurements reported in ChEMBL document CHEMBL4837253, “Structure-Based Discovery of Proline-Derived Arginase Inhibitors with Improved Oral Bioavailability for Immuno-Oncology” (ACS Med Chem Lett, 2021).
pEC50, pIC50: −log10 of the molar value. Calls of active or inactive are those of the source. The calls are words filed in the database; no cut-off is given here.

Assays:
Arginase-1 [1] = biological target: T1, Arginase-1 (Homo sapiens, UniProt P05089); assay: Inhibition of human recombinant ARG1 expressed in Escherichia coli using thioarginine as a substrate preincubated for 30 mins followed by substrate addition and incubated for 60 mins by fluorescence based arginine thio ornithine generating assay
T1 sequence (P05089 whole entry): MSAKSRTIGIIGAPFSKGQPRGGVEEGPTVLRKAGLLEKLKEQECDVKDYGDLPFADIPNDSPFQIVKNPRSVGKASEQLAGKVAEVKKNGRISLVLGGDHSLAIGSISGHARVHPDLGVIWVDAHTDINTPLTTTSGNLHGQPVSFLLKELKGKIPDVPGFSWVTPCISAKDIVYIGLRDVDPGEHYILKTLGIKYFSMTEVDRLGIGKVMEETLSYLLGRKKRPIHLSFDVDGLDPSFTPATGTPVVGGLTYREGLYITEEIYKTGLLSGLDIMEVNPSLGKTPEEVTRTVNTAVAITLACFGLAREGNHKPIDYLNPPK

[2] = Oral bioavailability in Wister Han rat at 10 mg/kg; format: ADME, organism-based; details: in vivo
[3] = Oral bioavailability in C57BL/6 mouse at 10 mg/kg; format: ADME, organism-based; details: in vivo
Arginase-1 [4] = biological target: T1, Arginase-1; assay: Inhibition of human ARG1 in HEK293 cells by cell based assay
[5] = Oral bioavailability in C57BL/6 mouse in the presence of compound 18 at 10 mg/kg; format: ADME, organism-based; details: in vivo
[6] = Stability in C57BL/6 mouse hepatocytes; format: ADME, cell-based, Hepatocyte
[7] = Metabolic stability in C57BL/6 mouse hepatocytes assessed as hydrolysis product of (2S,3R,4R)-4-amino-3-(3-boronopropyl)pyrrolidine-2-carboxylic acid measured; format: ADME, cell-based, Hepatocyte
EMT6 [8] = assay: In vivo inhibition of […] in EMT6 tumor bearing BALB/c mouse assessed as elevated arginine levels in serum in the presence of mouse anti-PD-1 mAb at 250 mg/kg, po administered twice daily measured after 14 days; format: functional, organism-based; details: time 14.0 day
[9] = Toxicity in EMT6 tumor bearing BALB/c mouse assessed as change in body weight at 30 to 300 mg/kg, po administered twice daily measured up to 14 days; format: organism-based; details: in vivo, 336 h, dose 30-300 mg/kg, time <=14 day
EMT6 [10] = assay: In vivo inhibition of […] in EMT6 tumor bearing BALB/c mouse assessed as elevated arginine levels in tumor in the presence of mouse anti-PD-1 mAb at 250 mg/kg, po administered twice daily measured after 14 days; format: functional, organism-based; details: Neoplasm, time 14.0 day
[11] = Drug uptake in tumor of EMT6 tumor bearing BALB/c mouse at 30 to 300 mg/kg, po administered twice daily measured after 2 days; format: ADME, organism-based, Neoplasm; details: in vivo, 48 h, dose 30-300 mg/kg, time 2 day
[12] = Drug uptake in serum of EMT6 tumor bearing BALB/c mouse at 30 to 300 mg/kg, po administered twice daily measured after 2 days; format: ADME, organism-based; details: in vivo, 48 h, dose 30-300 mg/kg, time 2 day
EMT6 [13] = assay: In vivo inhibition of […] in EMT6 tumor bearing BALB/c mouse assessed as elevated arginine levels in tumor at 250 mg/kg, po administered twice daily measured after 14 days; format: functional, organism-based; details: Neoplasm, time 14.0 day
EMT6 [14] = assay: In vivo inhibition of […] in EMT6 tumor bearing BALB/c mouse assessed as elevated arginine levels in tumor measured after 2 days; format: functional, organism-based; details: time 2.0 day
EMT6 [15] = assay: In vivo inhibition of […] in EMT6 tumor bearing BALB/c mouse assessed as elevated arginine levels in serum measured after 2 days; format: functional, organism-based; details: time 2.0 day
EMT6 [16] = assay: In vivo inhibition of […] in EMT6 tumor bearing BALB/c mouse assessed as elevated arginine levels in serum at 250 mg/kg, po administered twice daily measured after 14 days; format: functional, organism-based; details: time 14.0 day

SMILES | pIC50 (Arginase-1 [1]) | bioavailability [2] [%] | bioavailability [3] [%] | pEC50 (Arginase-1 [4]) | other results
NC[C@@H]1C[C@@H](CCCB(O)O)[C@@H](C(=O)O)N1 | 7.52 | 51 | 44 | 4.80 | –
O=C(O)[C@@]1(CCN2CCCCC2)NCC[C@H]1CCCB(O)O | 7.15 | 2.7 | 8.5 | < 4.52 | –
C[C@H](N)C(=O)N[C@H]1CN[C@H](C(=O)O)[C@@H]1CCCB(O)O | 7.96 | – | 3 | – | bioavailability [5]: 27%; Stabilty [6]: Unstable; Drug metabolism [7]: Metabolite_Detected
CC(C)(C)[C@H](N)C(=O)N[C@H]1CN[C@H](C(=O)O)[C@@H]1CCCB(O)O | > 9.00 | – | 34 | – | –
CC(C)[C@@H](N)C(=O)N[C@H]1CN[C@H](C(=O)O)[C@@H]1CCCB(O)O | 7.47 | – | – | – | –
O=C(O)[C@H]1NC[C@@H]1CCCB(O)O | – | – | 50 | – | –
CN(C)[C@H]1CN[C@H](C(=O)O)[C@@H]1CCCB(O)O | 7.18 | – | 17 | – | –
CO[C@H]1CN[C@H](C(=O)O)[C@@H]1CCCB(O)O | – | – | – | 4.55 | –
CN[C@H]1CN[C@H](C(=O)O)[C@@H]1CCCB(O)O | – | – | 11 | – | –
N[C@H]1CN[C@H](C(=O)O)[C@@H]1CCCB(O)O | 8.52 | – | 14 | 4.70 | –
O=C(O)[C@H]1NC[C@H](O)[C@H]1CCCB(O)O | 8.40 | 12 | 41 | 5.16 | –
O=C(O)[C@H]1NCCO[C@H]1CCCB(O)O | – | 10 | 14 | – | –
O=C(O)[C@H]1NCC[C@@]1(CO)CCCB(O)O | 7.72 | 39 | 34 | 4.96 | –
NC[C@@]1(CCCB(O)O)CCN[C@@H]1C(=O)O | 8.30 | – | – | 4.85 | –
O=C(O)[C@H]1NCC[C@@H]1CCCB(O)O | – | 34 | 44 | – | –
CN[C@H](C(=O)N[C@H]1CN[C@H](C(=O)O)[C@@H]1CCCB(O)O)C(C)C | 8.30 | – | 4.6 | – | –
C[C@@H]1C[C@@H](CCCB(O)O)[C@@H](C(=O)O)N1 | 8.15 | – | 31 | 5.55 | –
CC(C)[C@H](N)C(=O)N[C@H]1CN[C@H](C(=O)O)[C@@H]1CCCB(O)O | 8.70 | – | 13 | – | Stabilty [6]: Unstable
O=C(O)[C@H]1NC[C@H](NCC(F)(F)F)[C@H]1CCCB(O)O | – | – | 10 | – | –
C[C@@]1(CCCB(O)O)CCN[C@@H]1C(=O)O | 7.48 | 9 | 19 | 5.20 | –
O=C(O)C1CC(CCB(O)O)CN1 (racemic) | 5.06 | – | – | – | –
O=C(O)[C@H]1NCC[C@H]1CCCB(O)O | 7.80 | 25 | 43 | 5.47 | inhibition (EMT6 [8]): Active; Activity [9]: Non-Toxic; inhibition (EMT6 [10]): Active; Drug uptake [11]: Active; Drug uptake [12]: Active; inhibition (EMT6 [13]): Active; Activity (EMT6 [14]): Dose-Dependent Effect; Activity (EMT6 [15]): Dose-Dependent Effect; inhibition (EMT6 [16]): Active
O=C(O)[C@H]1N[C@H](CO)C[C@H]1CCCB(O)O | 8.10 | 12 | 12 | 5.38 | –
O=C(O)[C@H]1NC[C@H]1CCCB(O)O | – | – | 42 | – | –
